Measured values: PubChem BioAssay (NCI)
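Abbreviation: GI50, concentration required for 50% inhibition of growth. TGI: total growth inhibition.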

Key:
Experiment in all cases: NCI anticancer screen, dose series, 384-well format
A498 renal = system: A498 renal
UACC-62 melanoma = system: UACC-62 melanoma
M14 melanoma = system: M14 melanoma
HL-60(TB) leukemia = system: HL-60(TB) leukemia
OVCAR-8 ovarian = system: OVCAR-8 ovarian
DU-145 prostate = system: DU-145 prostate
NCI-H23 lung = system: NCI-H23 lung
HCT-15 colon = system: HCT-15 colon
HS 578T breast = system: HS 578T breast
U251 glioblastoma = system: U251 glioblastoma
ACHN renal = system: ACHN renal
NCI-H460 NSCLC = system: NCI-H460 NSCLC
SNB-75 CNS = system: SNB-75 CNS
MCF7 breast = system: MCF7 breast
NCI-H226 lung = system: NCI-H226 lung
HOP-62 NSCLC = system: HOP-62 NSCLC
RXF 393 renal = system: RXF 393 renal
NCI-H522 lung = system: NCI-H522 lung
HCT-116 colon = system: HCT-116 colon
CAKI-1 renal = system: CAKI-1 renal
SK-OV-3 ovarian = system: SK-OV-3 ovarian
SNB-19 CNS = system: SNB-19 CNS
RPMI-8226 leukemia = system: RPMI-8226 leukemia
MOLT-4 leukemia = system: MOLT-4 leukemia
NCI/ADR-RES ovarian = system: NCI/ADR-RES ovarian
MALME-3M melanoma = system: MALME-3M melanoma
NCI-H322M lung = system: NCI-H322M lung
SR leukemia = system: SR leukemia
KM12 colon = system: KM12 colon
HT29 colon = system: HT29 colon
OVCAR-5 ovarian = system: OVCAR-5 ovarian
MDA-MB-468 breast = system: MDA-MB-468 breast
PC-3 prostate = system: PC-3 prostate
A549 NSCLC = system: A549 NSCLC
IGROV1 ovarian = system: IGROV1 ovarian
TK-10 renal = system: TK-10 renal
T-47D breast = system: T-47D breast
SF-539 CNS = system: SF-539 CNS
SN12C renal = system: SN12C renal
SF-268 CNS = system: SF-268 CNS
OVCAR-3 ovarian = system: OVCAR-3 ovarian
MDA-MB-435 melanoma = system: MDA-MB-435 melanoma
SF-295 CNS = system: SF-295 CNS
HCC-2998 colon = system: HCC-2998 colon
OVCAR-4 ovarian = system: OVCAR-4 ovarian
LOX IMVI melanoma = system: LOX IMVI melanoma
SK-MEL-5 melanoma = system: SK-MEL-5 melanoma
SK-MEL-28 melanoma = system: SK-MEL-28 melanoma
UACC-257 melanoma = system: UACC-257 melanoma
MDA-MB-231 breast = system: MDA-MB-231 breast
EKVX NSCLC = system: EKVX NSCLC
BT-549 breast = system: BT-549 breast
HOP-92 NSCLC = system: HOP-92 NSCLC
COLO 205 colon = system: COLO 205 colon

CCn1c(C(=O)N(C2CC2)C2CC2)cc2c3c(ncn3C)c(Nc3cc(C)n(C)n3)nc21
GI50 (A498 renal): > 100 µM
TGI (A498 renal): > 100 µM
GI50 (UACC-62 melanoma): > 100 µM
TGI (UACC-62 melanoma): > 100 µM
GI50 (M14 melanoma): > 100 µM
TGI (M14 melanoma): > 100 µM
GI50 (HL-60(TB) leukemia): > 100 µM
TGI (HL-60(TB) leukemia): > 100 µM
GI50 (OVCAR-8 ovarian): > 100 µM
TGI (OVCAR-8 ovarian): > 100 µM
GI50 (DU-145 prostate): > 100 µM
TGI (DU-145 prostate): > 100 µM
GI50 (NCI-H23 lung): > 100 µM
TGI (NCI-H23 lung): > 100 µM
GI50 (HCT-15 colon): > 100 µM
TGI (HCT-15 colon): > 100 µM
GI50 (HS 578T breast): > 100 µM
TGI (HS 578T breast): > 100 µM
GI50 (U251 glioblastoma): > 100 µM
TGI (U251 glioblastoma): > 100 µM
GI50 (ACHN renal): > 100 µM
TGI (ACHN renal): > 100 µM
GI50 (NCI-H460 NSCLC): > 100 µM
TGI (NCI-H460 NSCLC): > 100 µM
GI50 (SNB-75 CNS): 26.2 µM
TGI (SNB-75 CNS): > 100 µM
GI50 (MCF7 breast): > 100 µM
TGI (MCF7 breast): > 100 µM
GI50 (NCI-H226 lung): > 100 µM
TGI (NCI-H226 lung): > 100 µM
GI50 (HOP-62 NSCLC): > 100 µM
TGI (HOP-62 NSCLC): > 100 µM
GI50 (RXF 393 renal): > 100 µM
TGI (RXF 393 renal): > 100 µM
GI50 (NCI-H522 lung): > 100 µM
TGI (NCI-H522 lung): > 100 µM
GI50 (HCT-116 colon): > 100 µM
TGI (HCT-116 colon): > 100 µM
GI50 (CAKI-1 renal): > 100 µM
TGI (CAKI-1 renal): > 100 µM
GI50 (SK-OV-3 ovarian): 34.8 µM
TGI (SK-OV-3 ovarian): > 100 µM
GI50 (SNB-19 CNS): > 100 µM
TGI (SNB-19 CNS): > 100 µM
GI50 (RPMI-8226 leukemia): > 100 µM
TGI (RPMI-8226 leukemia): > 100 µM
GI50 (MOLT-4 leukemia): 87.2 µM
TGI (MOLT-4 leukemia): > 100 µM
GI50 (NCI/ADR-RES ovarian): > 100 µM
TGI (NCI/ADR-RES ovarian): > 100 µM
GI50 (MALME-3M melanoma): > 100 µM
TGI (MALME-3M melanoma): > 100 µM
GI50 (NCI-H322M lung): > 100 µM
TGI (NCI-H322M lung): > 100 µM
GI50 (SR leukemia): 8.59 µM
TGI (SR leukemia): 50.5 µM
GI50 (KM12 colon): 0.675 µM
TGI (KM12 colon): > 100 µM
GI50 (HT29 colon): > 100 µM
TGI (HT29 colon): > 100 µM
GI50 (OVCAR-5 ovarian): > 100 µM
TGI (OVCAR-5 ovarian): > 100 µM
GI50 (MDA-MB-468 breast): > 100 µM
TGI (MDA-MB-468 breast): > 100 µM
GI50 (PC-3 prostate): > 100 µM
TGI (PC-3 prostate): > 100 µM
GI50 (A549 NSCLC): > 100 µM
TGI (A549 NSCLC): > 100 µM
GI50 (IGROV1 ovarian): 44 µM
TGI (IGROV1 ovarian): > 100 µM
GI50 (TK-10 renal): 81.8 µM
TGI (TK-10 renal): > 100 µM
GI50 (T-47D breast): > 100 µM
TGI (T-47D breast): > 100 µM
GI50 (SF-539 CNS): > 100 µM
TGI (SF-539 CNS): > 100 µM
GI50 (SN12C renal): 3.43 µM
TGI (SN12C renal): > 100 µM
GI50 (SF-268 CNS): > 100 µM
TGI (SF-268 CNS): > 100 µM
GI50 (OVCAR-3 ovarian): > 100 µM
TGI (OVCAR-3 ovarian): > 100 µM
GI50 (MDA-MB-435 melanoma): > 100 µM
TGI (MDA-MB-435 melanoma): > 100 µM
GI50 (SF-295 CNS): > 100 µM
TGI (SF-295 CNS): > 100 µM
GI50 (HCC-2998 colon): > 100 µM
TGI (HCC-2998 colon): > 100 µM
GI50 (OVCAR-4 ovarian): 33.4 µM
TGI (OVCAR-4 ovarian): > 100 µM
GI50 (LOX IMVI melanoma): 49.7 µM
TGI (LOX IMVI melanoma): > 100 µM
GI50 (SK-MEL-5 melanoma): > 100 µM
TGI (SK-MEL-5 melanoma): > 100 µM
GI50 (SK-MEL-28 melanoma): > 100 µM
TGI (SK-MEL-28 melanoma): > 100 µM
GI50 (UACC-257 melanoma): > 100 µM
TGI (UACC-257 melanoma): > 100 µM
GI50 (MDA-MB-231 breast): > 100 µM
TGI (MDA-MB-231 breast): > 100 µM
GI50 (EKVX NSCLC): > 100 µM
TGI (EKVX NSCLC): > 100 µM
GI50 (BT-549 breast): > 100 µM
TGI (BT-549 breast): > 100 µM
GI50 (HOP-92 NSCLC): > 100 µM
TGI (HOP-92 NSCLC): > 100 µM
GI50 (COLO 205 colon): > 100 µM
TGI (COLO 205 colon): > 100 µM
